Measurements taken from patent US4088793A, “Control of nitrosamine formation in nitrite cured meat” (Canada Packers Limited, priority 1977, dated 1978).

How the values were obtained:
[1] = system: experimental animals; conditions: tests on experimental animals; cited from earlier work
[2] = Volatile nitrosamine content of cook-out fat from fried nitrite-cured bacon slices streaked with test compound; conditions: for blocking of formation of nitrosamines: 20 ppm level of incorporation in the meat; for inhibition of nitrosamine formation: in comparison with the untreated controls
Source text: The mechanism by which the 1,2-dihydro- and 1,2,3,4-tetrahydro-6-hydroxyquinoline nitroxides interfere with the formation of nitrosamines at high temperature is not completely understood. However, the invention is not limited by any particular theory of operation. It has been shown by a series of tests with representative compounds that up to 100% of the nitrosamines which normally appear in fried bacon have been eliminated.
The nitroxide compounds from ethoxyquin and from dihydroethoxyquin, prepared as in Examples 1 and 2, respectively, were dissolved in separate portions of winterized soya oil to provide a 4.5% concentration and the resulting solutions were streaked on bacon slices, which had undergone a conventional nitrite cure and plant processing, in quantities providing levels of 1,2-dihydro-2,2,4-trimethyl-6-hydroxy-quinoline nitroxide of from 1 ppm to 100 ppm in the meat for one series of tests and levels of 1 - 20 ppm of the corresponding 1,2,3,4-tetrahydroquinoline nitroxide compound in the meat for another series of tests. Control slices of bacon were streaked with the oil alone. The bacon slices were fried under standardized conditions and the cook-out fat was analyzed for volatile nitrosamine content.

O=NN1CCCC1 [N-nitrosopyrrolidine]
carcinogenicity [1]: carcinogenic

1,2,3,4-tetrahydro-2,2,4-trimethyl-6-hydroxy-quinoline nitroxide [Nitroxide from Dihydro Ethoxyquin]
blocking of formation of nitrosamines [2]: essentially blocked formation of nitrosamines | Nitrosamines In Cook-Out Fat, Test Product ([2]; Example 13: 20 ppm in meat, control product 35 ppb): 3 ppb | Nitrosamines In Cook-Out Fat, Test Product ([2]; Example 14: 10 ppm in meat, control product 35 ppb): 13 ppb | Nitrosamines In Cook-Out Fat, Test Product ([2]; Example 15: 1 ppm in meat, control product 35 ppb): 20 ppb | Nitrosamines In Cook-Out Fat, Test Product ([2]; Example 16: 20 ppm in meat, control product 36 ppb, figures below 3 ppb not reliable): 2 ppb | Nitrosamines In Cook-Out Fat, Test Product ([2]; Example 17: 10 ppm in meat, control product 36 ppb): 6 ppb | Nitrosamines In Cook-Out Fat, Test Product ([2]; Example 18: 1 ppm in meat, control product 36 ppb): 22 ppb | inhibition of nitrosamine formation [2]: excellent inhibition of nitrosamine formation

CN(C)N=O [dimethylnitrosamine]
carcinogenicity [1]: carcinogenic

1,2-dihydro-2,2,4-trimethyl-6-hydroxy-quinoline nitroxide [Nitroxide from Ethoxyquin]
blocking of formation of nitrosamines [2]: essentially blocked formation of nitrosamines | Nitrosamines In Cook-Out Fat, Test Product ([2]; Example 3: 100 ppm in meat, control product 18 ppb, figures below 3 ppb not reliable): 0 ppb | Nitrosamines In Cook-Out Fat, Test Product ([2]; Example 4: 50 ppm in meat, control product 19 ppb, figures below 3 ppb not reliable): 0 ppb | Nitrosamines In Cook-Out Fat, Test Product ([2]; Example 5: 10 ppm in meat, control product 19 ppb): 3 ppb | Nitrosamines In Cook-Out Fat, Test Product ([2]; Example 6: 1 ppm in meat, control product 19 ppb): 13 ppb | Nitrosamines In Cook-Out Fat, Test Product ([2]; Example 7: 20 ppm in meat, control product 8 ppb, figures below 3 ppb not reliable): 0 ppb | Nitrosamines In Cook-Out Fat, Test Product ([2]; Example 8: 10 ppm in meat, control product 8 ppb, figures below 3 ppb not reliable): 0 ppb | Nitrosamines In Cook-Out Fat, Test Product ([2]; Example 9: 1 ppm in meat, control product 8 ppb, figures below 3 ppb not reliable): 2 ppb | Nitrosamines In Cook-Out Fat, Test Product ([2]; Example 10: 20 ppm in meat, control product 38 ppb, figures below 3 ppb not reliable): 2 ppb | Nitrosamines In Cook-Out Fat, Test Product ([2]; Example 11: 10 ppm in meat, control product 38 ppb): 5 ppb | Nitrosamines In Cook-Out Fat, Test Product ([2]; Example 12: 1 ppm in meat, control product 38 ppb): 16 ppb | inhibition of nitrosamine formation [2]: excellent inhibition of nitrosamine formation
